Reference: ChEMBL document CHEMBL4311992, “Discovery of 3-(((9H-purin-6-yl)amino)methyl)-4,6-dimethylpyridin-2(1H)-one derivatives as novel tubulin polymerization inhibitors for treatment of cancer” (Eur J Med Chem, 2019)
Activity calls are given as the source filed them. The rule behind the calls is not given here.

Legend:
[1] = molecular target: cGMP-dependent protein kinase 1 (Homo sapiens) (UniProt Q13976); experiment: Inhibition of recombinant full-length human PKG1alpha assessed as residual activity at 10 uM using RRRLSFAEPG as substrate measured after 40 mins in presence of [gamma33P]ATP by scintillation counting method
[2] = molecular target: Mitogen-activated protein kinase kinase kinase 3 (Homo sapiens) (UniProt Q99759); experiment: Inhibition of recombinant full-length human MEKK3 assessed as residual activity at 10 uM using myelin basic protein as substrate measured after 40 mins in presence of [gamma33P]ATP by scintillation counting method
[3] = tested on: CDK18/Cyclin Y (Homo sapiens), Q07002+Q8ND76 [T166M]; experiment: Inhibition of recombinant full length human cyclinY/CDK18 T166M mutant assessed as residual activity at 10 uM using YRRAAVPPSPSLS as substrate measured after 40 mins in presence of [gamma33P]ATP by scintillation counting method; type: protein-complex assay
[4] = molecular target: Aurora kinase C (Homo sapiens) (UniProt Q9UQB9); experiment: Inhibition of recombinant human AURKC (35 to end residues) assessed as residual activity at 10 uM using AKRRRLSSLRA as substrate measured after 40 mins in presence of [gamma33P]ATP by scintillation counting method
Mus musculus = species on record: Mus musculus; experiment: Inhibition of recombinant mouse ABL L782P/G784R/W785L/L786V mutant (27 to end residues) assessed as residual activity at 10 uM using EAIYAAPFAKKK as substrate measured after 40 mins in presence of [gamma33P]ATP by scintillation counting method
[5] = molecular target: CDK2/Cyclin A2 (Homo sapiens) (UniProt P24941+P20248); experiment: Inhibition of recombinant full-length human CDK2/cyclinA assessed as residual activity at 10 uM using histone H1 as substrate measured after 40 mins in presence of [gamma33P]ATP by scintillation counting method; type: protein-complex assay
[6] = molecular target: Dual specificity protein kinase CLK3 (Homo sapiens) (UniProt P49761); experiment: Inhibition of recombinant full-length human CLK3 assessed as residual activity at 10 uM using ERMRPRKRQGSVRRRV as substrate measured after 40 mins in presence of [gamma33P]ATP by scintillation counting method
HCT-116 [7] = experiment: Induction of apoptosis in human HCT116 cells assessed as early apoptotic cells at 25 nM measured after 48 hrs by Annexin V-FITC/propidium iodide staining-based flow cytometry (reference value: 0.418%); type: functional
HCT-116 [8] = experiment: Induction of apoptosis in human HCT116 cells measured after 48 hrs by Annexin V-FITC/propidium iodide staining-based flow cytometric analysis; type: functional, cell-based
SW-620 = experiment: Induction of apoptosis in human SW620 cells measured after 48 hrs by Annexin V-FITC/propidium iodide staining-based flow cytometric analysis; type: functional, cell-based
HCT-116 [9] = experiment: Induction of apoptosis in human HCT116 cells assessed as increase in cleaved caspase3 expression up to 200 nM measured after 48 hrs by Western blot analysis; type: functional, cell-based
HCT-116 [10] = experiment: Induction of apoptosis in human HCT116 cells assessed as increase in cleaved PARP expression up to 200 nM measured after 48 hrs by Western blot analysis; type: functional, cell-based
[11] = Cardiotoxicity in nude BALB/c mouse at 80 mg/kg, po administered once daily for 4 weeks measured post-last dose by hematoxylin and eosin staining-based assay; type: toxicity, organism-based; settings: in vivo, 672 h
[12] = molecular target: Serine/threonine-protein kinase STK11 (Homo sapiens) (UniProt Q15831); experiment: Inhibition of recombinant full-length human LKB1 assessed as residual activity at 10 uM using LSNLYHQGKFLQTFCGSPLYRRR as substrate measured after 40 mins in presence of [gamma33P]ATP by scintillation counting method
[13] = molecular target: Tyrosine-protein kinase Lyn (Homo sapiens) (UniProt P07948); experiment: Inhibition of recombinant full-length human Lyn assessed as residual activity at 10 uM using poly(Glu, Tyr) 4:1 as substrate measured after 40 mins in presence of [gamma33P]ATP by scintillation counting method
[14] = molecular target: Leukocyte tyrosine kinase receptor (Homo sapiens) (UniProt P29376); experiment: Inhibition of recombinant human LTK (450 to end residues) assessed as residual activity at 10 uM using GEEPLYWSFPAKKK as substrate measured after 40 mins in presence of [gamma33P]ATP by scintillation counting method
[15] = molecular target: Dual specificity mitogen-activated protein kinase kinase 6 (Homo sapiens) (UniProt P52564); experiment: Inhibition of recombinant human MKK6 (4 to end residues) assessed as residual activity at 10 uM using unactive SAPK2a as substrate measured after 40 mins in presence of [gamma33P]ATP by scintillation counting method
[16] = molecular target: Serine/threonine-protein kinase PRP4 homolog (Homo sapiens) (UniProt Q13523); experiment: Inhibition of human PRP4 (663 to end residues) using casein as substrate measured after 40 mins in presence of [gamma33P]ATP by scintillation counting method; design: scale not given: the % may be the effect or the level left
[17] = molecular target: Protein-tyrosine kinase 2-beta (Homo sapiens) (UniProt Q14289); experiment: Inhibition of recombinant full-length human Pyk2 assessed as residual activity at 10 uM using poly(Glu, Tyr) 4:1 as substrate measured after 40 mins in presence of [gamma33P]ATP by scintillation counting method
[18] = molecular target: Macrophage-stimulating protein receptor (Homo sapiens) (UniProt Q04912); experiment: Inhibition of human Ron (983 to end residues) using GGMEDIYFEFMGGKKK as substrate measured after 40 mins in presence of [gamma33P]ATP by scintillation counting method; design: scale not given: the % may be the effect or the level left
[19] = molecular target: Tyrosine-protein kinase Srms (Homo sapiens) (UniProt Q9H3Y6); experiment: Inhibition of human SRMS assessed as residual activity at 10 uM by radiometric method
[20] = molecular target: Phosphatidylinositol 4-phosphate 5-kinase type-1 alpha (Homo sapiens) (UniProt Q99755); experiment: Inhibition of recombinant full-length human PIP5K1alpha assessed as residual activity at 10 uM using phosphatidylinositol 4-phosphate as substrate measured after 40 mins by HTRF assay
[21] = molecular target: DNA-dependent protein kinase catalytic subunit (Homo sapiens) (UniProt P78527); experiment: Inhibition of recombinant full-length human DNA-PK assessed as residual activity at 10 uM using GST-cMyc-p53 as substrate measured after 40 mins by fluorescence assay
[22] = tested on: PI3-kinase p110-alpha/p85-alpha (Homo sapiens), P27986+P42336 [H1047R]; experiment: Inhibition of recombinant full-length human PI3K p110alpha/p85alpha H1047R mutant assessed as residual activity at 10 uM using phosphatidylinositol-4, 5-bisphosphate as substrate measured after 40 mins by fluorescence assay; type: protein-complex assay
Homo sapiens = species on record: Homo sapiens; experiment: Inhibition of recombinant full-length human PI3K p110alpha/p65alpha (1 to 571 residues) assessed as residual activity at 10 uM using phosphatidylinositol-4, 5-bisphosphate as substrate measured after 40 mins by HTRF assay
[23] = Toxicity in nude BALB/c mouse assessed as change in glucose level at 40 to 80 mg/kg, po once daily for 4 weeks measured post-last dose; type: organism-based; settings: in vivo, 672 h

Protein-tyrosine kinase 2-beta (Homo sapiens), sequence (Q14289 whole entry, looked up): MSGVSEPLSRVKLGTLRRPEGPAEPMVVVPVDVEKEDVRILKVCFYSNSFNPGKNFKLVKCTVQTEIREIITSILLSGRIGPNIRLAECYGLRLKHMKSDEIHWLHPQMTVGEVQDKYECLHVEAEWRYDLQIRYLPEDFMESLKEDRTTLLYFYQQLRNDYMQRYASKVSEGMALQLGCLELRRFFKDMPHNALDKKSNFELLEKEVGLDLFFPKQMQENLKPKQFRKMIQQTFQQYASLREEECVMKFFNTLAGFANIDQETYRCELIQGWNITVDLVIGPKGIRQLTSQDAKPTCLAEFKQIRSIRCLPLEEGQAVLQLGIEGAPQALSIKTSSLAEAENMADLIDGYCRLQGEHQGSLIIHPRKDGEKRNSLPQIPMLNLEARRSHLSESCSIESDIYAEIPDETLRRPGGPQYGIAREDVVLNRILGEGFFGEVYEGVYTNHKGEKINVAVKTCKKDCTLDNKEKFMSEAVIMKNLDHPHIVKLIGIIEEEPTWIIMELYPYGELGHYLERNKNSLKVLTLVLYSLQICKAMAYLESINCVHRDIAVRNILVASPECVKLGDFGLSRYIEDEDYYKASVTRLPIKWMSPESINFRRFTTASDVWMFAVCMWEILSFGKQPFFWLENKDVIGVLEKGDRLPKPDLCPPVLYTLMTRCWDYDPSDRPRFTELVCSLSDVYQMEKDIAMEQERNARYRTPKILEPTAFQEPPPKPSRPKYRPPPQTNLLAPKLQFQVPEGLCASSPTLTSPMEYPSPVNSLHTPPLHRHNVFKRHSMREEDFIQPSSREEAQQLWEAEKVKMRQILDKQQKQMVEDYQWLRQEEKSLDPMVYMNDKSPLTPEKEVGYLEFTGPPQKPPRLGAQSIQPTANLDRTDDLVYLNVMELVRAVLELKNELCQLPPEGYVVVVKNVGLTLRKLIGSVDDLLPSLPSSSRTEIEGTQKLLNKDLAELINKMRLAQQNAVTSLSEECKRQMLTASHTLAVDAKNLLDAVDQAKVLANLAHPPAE
Mitogen-activated protein kinase kinase kinase 3 (Homo sapiens), sequence (Q99759 whole entry): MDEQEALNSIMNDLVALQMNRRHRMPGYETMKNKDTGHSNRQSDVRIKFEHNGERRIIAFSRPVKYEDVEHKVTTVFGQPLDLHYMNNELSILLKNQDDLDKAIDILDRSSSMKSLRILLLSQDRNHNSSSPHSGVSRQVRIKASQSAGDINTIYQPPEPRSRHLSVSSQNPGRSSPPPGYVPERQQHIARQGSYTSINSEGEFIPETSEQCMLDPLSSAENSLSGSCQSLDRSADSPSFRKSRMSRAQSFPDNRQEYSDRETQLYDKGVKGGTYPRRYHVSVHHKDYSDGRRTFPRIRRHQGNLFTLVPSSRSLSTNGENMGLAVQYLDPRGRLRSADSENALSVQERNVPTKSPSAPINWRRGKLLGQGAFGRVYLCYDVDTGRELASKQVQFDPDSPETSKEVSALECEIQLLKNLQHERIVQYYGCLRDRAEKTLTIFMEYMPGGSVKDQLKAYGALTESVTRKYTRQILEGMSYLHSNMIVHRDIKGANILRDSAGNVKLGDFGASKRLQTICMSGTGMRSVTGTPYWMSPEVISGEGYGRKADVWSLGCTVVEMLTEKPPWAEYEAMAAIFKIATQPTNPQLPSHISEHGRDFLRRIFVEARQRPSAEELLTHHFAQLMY
Dual specificity mitogen-activated protein kinase kinase 6 (Homo sapiens), sequence (P52564 whole entry): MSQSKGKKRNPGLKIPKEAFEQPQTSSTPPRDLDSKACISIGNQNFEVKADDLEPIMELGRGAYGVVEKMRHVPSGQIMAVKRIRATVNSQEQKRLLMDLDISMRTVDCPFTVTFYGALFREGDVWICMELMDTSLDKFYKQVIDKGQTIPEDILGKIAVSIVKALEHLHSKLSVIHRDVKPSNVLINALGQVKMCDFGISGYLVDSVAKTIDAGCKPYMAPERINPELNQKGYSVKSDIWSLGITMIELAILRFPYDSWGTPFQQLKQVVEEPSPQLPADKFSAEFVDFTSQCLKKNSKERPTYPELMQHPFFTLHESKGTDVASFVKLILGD
Tyrosine-protein kinase Srms (Homo sapiens), sequence (Q9H3Y6 whole entry): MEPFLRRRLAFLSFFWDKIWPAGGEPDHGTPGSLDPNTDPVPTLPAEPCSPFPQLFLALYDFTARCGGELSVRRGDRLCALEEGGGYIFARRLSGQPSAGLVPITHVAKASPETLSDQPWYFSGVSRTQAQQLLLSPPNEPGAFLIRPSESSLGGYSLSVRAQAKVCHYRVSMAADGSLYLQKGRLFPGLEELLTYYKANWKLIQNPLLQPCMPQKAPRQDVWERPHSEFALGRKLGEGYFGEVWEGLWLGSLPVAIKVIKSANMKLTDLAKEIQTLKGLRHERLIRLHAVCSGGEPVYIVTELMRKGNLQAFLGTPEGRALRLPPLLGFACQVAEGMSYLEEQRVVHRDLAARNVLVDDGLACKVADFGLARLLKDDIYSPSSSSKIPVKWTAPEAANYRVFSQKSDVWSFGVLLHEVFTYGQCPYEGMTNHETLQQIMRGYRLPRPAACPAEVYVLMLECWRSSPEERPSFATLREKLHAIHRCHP
Tyrosine-protein kinase Lyn (Homo sapiens), sequence (P07948 2-512 limits assumed): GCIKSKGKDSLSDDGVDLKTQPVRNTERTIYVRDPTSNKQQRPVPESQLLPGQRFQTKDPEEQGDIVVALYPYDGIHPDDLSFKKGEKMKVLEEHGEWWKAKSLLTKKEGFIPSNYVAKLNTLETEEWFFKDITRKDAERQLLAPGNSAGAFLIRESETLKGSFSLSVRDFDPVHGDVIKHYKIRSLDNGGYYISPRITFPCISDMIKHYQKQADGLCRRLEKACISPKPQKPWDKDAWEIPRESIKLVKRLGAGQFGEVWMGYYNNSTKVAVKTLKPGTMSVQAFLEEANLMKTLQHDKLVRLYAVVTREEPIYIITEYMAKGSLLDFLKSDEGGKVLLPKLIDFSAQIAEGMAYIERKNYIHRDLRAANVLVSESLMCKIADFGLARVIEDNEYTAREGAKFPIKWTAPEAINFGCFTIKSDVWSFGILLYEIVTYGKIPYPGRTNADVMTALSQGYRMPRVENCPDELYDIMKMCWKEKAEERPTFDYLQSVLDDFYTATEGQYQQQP
cGMP-dependent protein kinase 1 (Homo sapiens), sequence (Q13976 whole entry): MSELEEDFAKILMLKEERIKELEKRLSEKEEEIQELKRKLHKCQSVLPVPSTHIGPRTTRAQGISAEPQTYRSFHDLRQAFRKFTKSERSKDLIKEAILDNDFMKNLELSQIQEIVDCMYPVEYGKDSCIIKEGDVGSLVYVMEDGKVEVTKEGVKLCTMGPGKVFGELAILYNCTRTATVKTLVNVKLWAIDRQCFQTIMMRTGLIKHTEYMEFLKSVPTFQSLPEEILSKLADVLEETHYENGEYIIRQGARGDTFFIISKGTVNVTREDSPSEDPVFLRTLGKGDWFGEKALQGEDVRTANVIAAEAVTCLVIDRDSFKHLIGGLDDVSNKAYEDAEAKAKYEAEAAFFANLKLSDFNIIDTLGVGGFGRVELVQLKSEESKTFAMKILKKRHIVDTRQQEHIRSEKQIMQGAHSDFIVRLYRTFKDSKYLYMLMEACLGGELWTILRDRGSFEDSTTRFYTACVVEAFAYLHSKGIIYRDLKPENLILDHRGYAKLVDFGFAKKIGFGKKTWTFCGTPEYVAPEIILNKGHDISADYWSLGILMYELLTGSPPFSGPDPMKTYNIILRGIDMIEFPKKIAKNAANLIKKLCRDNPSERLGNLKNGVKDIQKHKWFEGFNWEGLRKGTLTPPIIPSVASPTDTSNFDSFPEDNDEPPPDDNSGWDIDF
Dual specificity protein kinase CLK3 (Homo sapiens), sequence (P49761 whole entry, looked up): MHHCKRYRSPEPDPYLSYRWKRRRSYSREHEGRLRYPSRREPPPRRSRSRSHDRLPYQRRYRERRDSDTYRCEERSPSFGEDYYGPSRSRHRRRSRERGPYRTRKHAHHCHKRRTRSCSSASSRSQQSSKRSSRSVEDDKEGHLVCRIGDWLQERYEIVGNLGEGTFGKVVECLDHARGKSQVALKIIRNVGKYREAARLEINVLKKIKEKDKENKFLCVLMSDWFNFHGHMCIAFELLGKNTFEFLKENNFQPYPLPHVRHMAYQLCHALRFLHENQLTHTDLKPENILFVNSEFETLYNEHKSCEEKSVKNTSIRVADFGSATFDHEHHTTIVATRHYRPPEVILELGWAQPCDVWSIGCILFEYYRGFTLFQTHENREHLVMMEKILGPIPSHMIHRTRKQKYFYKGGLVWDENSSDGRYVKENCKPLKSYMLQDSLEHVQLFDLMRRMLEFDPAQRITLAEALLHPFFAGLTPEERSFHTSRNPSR
Phosphatidylinositol 4-phosphate 5-kinase type-1 alpha (Homo sapiens), sequence (Q99755 whole entry): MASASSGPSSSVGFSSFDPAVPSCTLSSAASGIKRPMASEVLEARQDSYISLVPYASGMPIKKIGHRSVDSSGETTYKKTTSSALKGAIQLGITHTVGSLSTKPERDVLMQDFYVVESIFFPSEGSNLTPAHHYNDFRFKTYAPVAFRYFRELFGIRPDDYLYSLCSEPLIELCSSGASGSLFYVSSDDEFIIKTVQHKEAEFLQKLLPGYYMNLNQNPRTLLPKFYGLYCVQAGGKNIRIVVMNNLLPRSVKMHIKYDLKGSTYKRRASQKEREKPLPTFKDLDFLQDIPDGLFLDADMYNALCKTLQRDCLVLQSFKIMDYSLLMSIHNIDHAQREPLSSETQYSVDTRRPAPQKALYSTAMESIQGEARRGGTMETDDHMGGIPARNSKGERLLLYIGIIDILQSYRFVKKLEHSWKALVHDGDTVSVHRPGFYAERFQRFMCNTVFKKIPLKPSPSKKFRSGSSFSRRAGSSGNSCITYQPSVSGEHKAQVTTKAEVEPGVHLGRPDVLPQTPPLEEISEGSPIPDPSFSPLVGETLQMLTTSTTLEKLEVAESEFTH
Aurora kinase C (Homo sapiens), sequence (Q9UQB9 whole entry): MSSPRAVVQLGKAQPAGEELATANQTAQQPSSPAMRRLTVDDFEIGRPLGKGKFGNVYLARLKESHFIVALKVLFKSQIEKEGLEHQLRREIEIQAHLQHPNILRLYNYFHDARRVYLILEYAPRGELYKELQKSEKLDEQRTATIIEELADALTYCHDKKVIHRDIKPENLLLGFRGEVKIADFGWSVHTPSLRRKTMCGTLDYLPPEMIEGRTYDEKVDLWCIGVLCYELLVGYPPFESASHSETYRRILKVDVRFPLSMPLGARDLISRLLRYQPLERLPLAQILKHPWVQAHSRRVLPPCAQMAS

Cc1cc(C)c(CNc2nc(Cl)nc3c2ncn3C2CCCC2)c(=O)[nH]1
Activity [1]: 99.5% | Activity [2]: 106% | Activity [3]: 101% | Activity [4]: 106% | Activity (Mus musculus): 101% | Activity [5]: 110% | Activity [6]: 116% | Activity (HCT-116 [7]): 1.54% | Activity (HCT-116 [8]): Dose-dependent effect | Activity (SW-620): Dose-dependent effect | Activity (HCT-116 [9]): Active | Activity (HCT-116 [10]): Active | Activity [11]: Non-Toxic | Activity [12]: 110% | Activity [13]: 119% | Activity [14]: 102% | Activity [15]: 114% | Activity [16]: 93% | Activity [17]: 97% | Activity [18]: 110% | Activity [19]: 108% | Activity [20]: 100% | Activity [21]: 99% | Activity [22]: 101% | Activity (Homo sapiens): 93% | Activity [23]: Non-Toxic
